Test results taken from US9782368B2, “Use of N,N-bis-2-mercaptoethyl isophthalamide” (EMERAMED LIMITED, priority 2014, dated 2017).

Columns and labels:
[1] = Ascorbate depletion assay, CuSO4-sponsored oxidation, recycling of DHA; conditions: CuSO4 model
Method: The kinetics of ascorbate oxidation, sponsored by both 1 μM 9,10-PQ and 2 μM copper sulphate (CuSO4), was examined using the ascorbate depletion assay (Kelly et al, Res. Rep. Health Eff. Inst., 163, 3 (2011). 9,10-PQ was employed so that the action of NBMI could be examined in isolation of its chelation properties.
All experiments were performed in triplicate in UV 96 well flat-bottomed plates (Greiner bio-one) at a final volume of 200 μL. Exposures were initiated by the addition of 20 μL of a concentrated stock of ascorbate (2 mM) into each well containing 160 μL of Chelex-100 resin treated water (containing 10% DMSO), plus either 10 μL of water, CuSO4 stock solution at 4 mM or 9,10-PQ stock solution at 2 mM, and 10 μL of NMBI (4 mM and […]).
All solutions were prepared in Chelex-100 resin treated water (containing 10% DMSO). This yielded final concentrations in the wells of […], 2 μM CuSO4, or 1 μM 9,10-PQ and between 10 and 200 μM of NBMI.
Immediately prior to the addition of the ascorbate to each assay well, the plate was pre-incubated for 10 minutes at 37° C. in a plate reader (Spectra Max 190). During the exposure, the plate was maintained at this temperature. After addition of ascorbate, the concentration remaining in each well was monitored every 2 minutes for a period of two hours by measuring the absorbance at 265 nm. The ascorbate concentration was determined with reference to a standard curve, with the rate of ascorbate oxidation determined by performing a linear regression through the initial part of a concentration verses time plot using Microcal Software Limited's OriginLab (version 5.0). This was performed for each of the triplicates and the rate of ascorbate depletion was finally expressed as mean mol s 1×10^−9 depletion of ascorbate±standard deviation.
For the experiments in which the impact of adding NBMI to the ascorbate was measured, CuSO4 and 9,10-PQ depletion assays were examined later in the time course. The plates were ran with 190 μL only for the first 55-60 minutes, after which they were removed from the plate reader and 10 μL of either the NMBI or the known reducing agent, DTT stock solution, or water was added to each well. The plate was then returned to the plate reader and the absorbance at 265 nm monitored for a further 60 minutes.
The immediate increase in the measured ascorbate concentrations was determined and is referred to as the ‘jump’, as a measure of immediate recycling capacity. The sustained ‘increase’ over the remaining 60 minutes of the incubation was also determined.

COPD = assay: Treatment of patient with COPD; assay type: in vivo, human
Method: A retired person residing in the USA, who had been medically diagnosed with COPD several years earlier, regularly experienced coughing fits two to four times in any 24 hour period, beginning at any hour of the day or night and lasting from about 40 to 75 minutes. As a consequence of these coughing fits, the patient's breathing was shallow, their throat irritated, their voice was raspy, their energy levels very low and their quality of life very poor.

[2] = by the eighth day, 100 mg capsule three times daily

- sustained 'increase' in ascorbate over remaining 60 minutes ([1]; 200 μM added at 60 minutes): 25.45 ± 2.45 µM
Compound: O=C(NCCS)c1cccc(C(=O)NCCS)c1 [NBMI, N,N-bis-2-mercaptoethyl isophthalamide]
- immediate 'jump' in ascorbate concentration ([1]; 200 μM added at 60 minutes): 24.98 ± 5.54 µM
- subsequent rate of oxidation after addition ([1]; addition at 10, 20 and 30 minutes): quenched
- symptoms of COPD (COPD; 100 mg capsule three times daily for eight days, one patient): marked improvement in symptoms
- breathing (COPD; [2]): significantly improved breathing
- coughing fits (COPD; [2]): no coughing fits
